Reference: ChEMBL document CHEMBL1139525, “Targeting and inhibition of cell growth by an engineered dendritic nanodevice” (J Med Chem, 2005)

Key:
KB = assay: Concentration required to completely block the uptake of either G5-FI-FA or G5-FI-FA-MTX dendrimer (30 nM) in FAR expressing KB cells; assay type: functional, cell-based; conditions: Homo sapiens
[1] = Dissociation constant against folic acid receptor (FAR); Value ranges from 0.1-1 nM; design: species or system Homo sapiens

Kd [1]: 1 nM
Compound: Nc1nc(=O)c2nc(CNc3ccc(C(=O)N[C@@H](CCC(=O)O)C(=O)O)cc3)cnc2[nH]1 [FOLIC ACID]
Concentration (KB): 50 µM
